In experiment [1] the target is T1, human PPARα ligand binding domain (Homo sapiens, UniProt Q07869).
T1 construct: expressed in transfected cells; host or cells: HEK-293T
T1 sequence (Q07869 239-466 limits assumed): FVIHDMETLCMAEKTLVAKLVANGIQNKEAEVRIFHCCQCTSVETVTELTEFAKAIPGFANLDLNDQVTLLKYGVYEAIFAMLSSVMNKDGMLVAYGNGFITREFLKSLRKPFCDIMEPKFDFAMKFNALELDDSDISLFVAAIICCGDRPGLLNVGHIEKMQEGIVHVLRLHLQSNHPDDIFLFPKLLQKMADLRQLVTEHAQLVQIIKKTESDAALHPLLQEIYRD
The experiment in a line: PPAR reporter gene assay (Gal4 hybrid, PPARα). Type of experiment: cell-based. To be noted: HEK-293T, reference GW7647 1 μM, tested up to 10 μM.
Description: (§2) HEK-293T cells were seeded in 96-well plates (2.5 × 10^4 cells/well) and were allowed to adhere overnight. Before transfection, medium was changed to Opti-MEM without supplements. Transient plasmid transfection was carried out using Lipofectamine LTX reagent (Invitrogen, Carlsbad, CA, United States) according to the manufacturer’s protocol with pFR-Luc (Stratagene, La Jolla, CA, United States), pRL-SV40 (Promega, Fitchburg, MA, United States) and pFA-CMV-PPAR-LBD ([Rau et al., 2006]). 5 h after transfection, medium was changed to Opti-MEM supplemented with penicillin (100 U/mL) and streptomycin (100 μg/mL), now additionally containing 0.1% DMSO and the respective test compound or 0.1% DMSO alone as untreated control. Each concentration was tested in triplicates and each experiment was repeated independently at least four times. Following overnight (12–16 h) incubation with the test compounds, cells were assayed for luciferase activity using the Dual-Glo^TM Luciferase Assay System (Promega, Fitchburg, MA, United States) according to the manufacturer’s protocol. Luminescence was measured with an Infinite M200 luminometer (Tecan Group Ltd., Männedorf, Switzerland). Normalization of transfection efficiency and cell growth was done by division of firefly luciferase data by renilla luciferase data and multiplying the value by 1000 resulting in relative light units (RLU). Fold activation was obtained by dividing the mean RLU of a test compound at a respective concentration by the mean RLU of untreated control. Relative activation was obtained by dividing the fold activation of a test compound at a respective concentration by the fold activation of the respective PPARα, γ or δ full agonist GW-7647, pioglitazone or L165,041 at 1 μM. EC50 and standard deviation were calculated with the mean relative activation values of at least four independent experiments by SigmaPlot 10.0 (Systat Software GmbH, Erkrath, Germany) using a four parameter logistic regression. […]

Another experiment addresses T2, sEH (HEP-G2) (Homo sapiens, UniProt P34913).
T2 construct: 1 μg of total cell homogenate diluted in 100 μl of PBS; endogenous in cells; host or cells: HEP-G2
T2 sequence (P34913 1-555): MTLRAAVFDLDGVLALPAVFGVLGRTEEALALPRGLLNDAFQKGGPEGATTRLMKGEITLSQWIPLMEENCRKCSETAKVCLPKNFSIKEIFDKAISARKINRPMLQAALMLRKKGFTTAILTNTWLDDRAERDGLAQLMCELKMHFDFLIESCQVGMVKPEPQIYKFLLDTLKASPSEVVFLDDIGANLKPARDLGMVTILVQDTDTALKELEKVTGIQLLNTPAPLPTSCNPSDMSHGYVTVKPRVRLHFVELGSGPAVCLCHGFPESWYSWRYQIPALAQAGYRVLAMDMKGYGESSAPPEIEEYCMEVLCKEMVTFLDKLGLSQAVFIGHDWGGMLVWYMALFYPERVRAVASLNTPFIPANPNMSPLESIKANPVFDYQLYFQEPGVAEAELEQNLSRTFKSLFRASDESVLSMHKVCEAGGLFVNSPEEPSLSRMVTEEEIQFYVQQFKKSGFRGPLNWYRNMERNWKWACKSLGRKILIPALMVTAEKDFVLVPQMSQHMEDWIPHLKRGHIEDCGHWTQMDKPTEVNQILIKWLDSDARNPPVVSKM
As to the kind of experiment: sEH activity in HEP-G2 cell lysates (14(15)-EET-d11 to DHET-d11, LC-MS/MS). Type of experiment: biochemical. To be noted: HEP-G2 cell homogenate, (±)14(15)-EET-d11 substrate, DHET formation by LC-MS/MS.

The subject of a further experiment is CysLT1R. To be noted: Table 2 comparison column; no method, no reference given; cited from earlier work.
Experiment [2] has as its target T3, human PPARδ ligand binding domain (Homo sapiens, UniProt Q03181).
T3 construct: expressed in transfected cells; host or cells: HEK-293T
T3 sequence (Q03181 211-439 limits assumed): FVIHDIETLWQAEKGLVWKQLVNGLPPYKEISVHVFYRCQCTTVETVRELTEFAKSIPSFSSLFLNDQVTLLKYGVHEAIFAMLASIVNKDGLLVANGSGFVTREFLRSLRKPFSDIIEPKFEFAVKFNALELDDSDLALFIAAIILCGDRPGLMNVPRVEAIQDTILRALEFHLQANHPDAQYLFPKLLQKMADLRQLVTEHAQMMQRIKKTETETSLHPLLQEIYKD
The experiment in a line: PPAR reporter gene assay (Gal4 hybrid, PPARδ). The experiment is classed as cell-based. To be noted: HEK-293T, reference L165,041 1 μM, tested up to 10 μM.
Description: as §2

Another experiment deals with T4, recombinant human sEH (Homo sapiens, UniProt P34913).
T4 sequence (P34913 1-555): T2 sequence (P34913 1-555)
The experiment in a line: Recombinant sEH activity (PHOME fluorescence assay). The experiment is classed as biochemical. Conditions: PHOME 50 μM, 30 min preincubation at RT, read-out: sEH rec. IC50.

Another experiment concerns 3T3-L1 cells. As to the kind of experiment: 3T3-L1 adipocyte differentiation, Oil Red O lipid accumulation. Conditions: differentiation cocktail plus zafirlukast or montelukast 1, 5, 10 μM or rosiglitazone 2 μM; 14 days. Type of experiment: cell-based, murine. The procedure: (§1) 3T3-L1 cells were differentiated into adipocytes for 14 days according to the protocol of [Zebisch et al. (2012)]. For this, cells were seeded in 6-well plates ([…]) and differentiation was induced after 48 h by addition of a differentiation cocktail containing 1 μg/mL insulin, 0.25 μM dexamethasone and 0.5 mM isobutylmethylxanthine (IBMX) in DMEM supplemented with 10% FCS and 1% PS. […] After 2 days, medium was replaced by DMEM supplemented with 10% FCS, 1% PS and 1 μg/mL insulin for 2 more days. Afterwards, cells were kept for lipid droplet accumulation in DMEM containing 10% FCS and 1% PS until day 15. Media were replaced every other day.
Differentiated 3T3-L1 cells were washed with PBS and subsequently fixed for 60 min with formaldehyde (4% in PBS). Afterwards, cells were thoroughly rinsed with 60% isopropanol and incubated with Oil Red O solution (0.3% in 60% isopropanol) for 120 min. This was followed by the removal of the staining solution and thorough rinsing of the cell layer with ultrapure water. Finally, the plates were dried and pictures of the stained cell layers were taken.
For quantification of the accumulated dye, 3T3-L1 cells were seeded in 24-well plates (0.55 × 10^5/well) instead of 6-wells and the differentiation was carried out as described in the section ‘Adipocyte differentiation’. After 14 days of differentiation, cells were fixed and stained as described above. […] 100 μl of dye extract were transferred to a 96-well plate and absorbance was measured (λabs = 510 nm) by an Infinite F200 plate reader (Tecan Group Ltd., Männedorf, Switzerland). […]
As master regulator of adipocyte differentiation in men and mice, PPARγ plays a crucial role in the cell’s commitment to the adipocyte lineage by controlling important functions such as intracellular biosynthesis, transport and accumulation of lipids. […] Upon differentiation, different parameters such as lipid accumulation and PPARγ target gene expression can be assessed to investigate the PPARγ activating potential of the compounds of interest. […]

Experiment [3] deals with PPARγ2 phosphorylation at serine 273. The experiment in a line: TNFα triggered PPARγ Ser273 phosphorylation in 3T3-L1 adipocytes (Western Blot). Type of experiment: cell-based, murine. Conditions: zafirlukast 1 or 10 μM or rosiglitazone 2 μM for 45 min, then TNFα 50 ng/mL 30 min. The procedure:
Total 3T3-L1 or HEP-G2 cell lysates were prepared in lysis buffer (20 mM Tris-HCl, pH 7.4, 150 mM NaCl, 2 mM EDTA, 1% Triton X-100, 0.5% NP-40) supplemented with protease and phosphatase inhibitors (PhosSTOP^TM + cOmplete^TM Mini, Roche Diagnostics GmbH, Mannheim, Germany). Protein concentrations were quantified using the Pierce^TM BCA Protein Assay Kit (Thermo Scientific, Waltham, MA, United States). Total protein (30 μg/lane) was separated by SDS-polyacrylamide gel electrophoresis and transferred to nitrocellulose membranes (GE Healthcare Life Sciences, Little Chalfont, United Kingdom). Membranes were blocked with Odyssey blocking reagent (LI-COR Biosciences, Bad Homburg, Germany) for 1 h at room temperature. […] Afterwards, membranes were washed and incubated with fluorescence conjugated secondary antibodies (IRDye, LI-COR Biosciences, Bad Homburg, Germany). […] The density of the immune reactive bands was analyzed using the Image Studio 5.2 software (LI-COR Biosciences, Bad Homburg, Germany).
We induced this post-translational modification by short-term treatment of the differentiated cells with the cytokine TNFα, generating a pro-inflammatory milieu. […] For this, we used an assay system in which the recruitment of the fluorescence-tagged PPARγ coactivator CBP to the PPARγ-LBD was assessed by time-resolved FRET technique in presence and absence of rosiglitazone.

Experiment [4] concerns PPARγ, FABP-4 and CD36 protein in 3T3-L1 adipocytes. As to the kind of experiment: Protein expression in differentiated 3T3-L1 adipocytes (Western Blot). Type of experiment: cell-based, murine. To be noted: rosiglitazone 2 μM. The procedure: as §1
Total 3T3-L1 or HEP-G2 cell lysates were prepared in lysis buffer (20 mM Tris-HCl, pH 7.4, 150 mM NaCl, 2 mM EDTA, 1% Triton X-100, 0.5% NP-40) supplemented with protease and phosphatase inhibitors (PhosSTOP^TM + cOmplete^TM Mini, Roche Diagnostics GmbH, Mannheim, Germany). Protein concentrations were quantified using the Pierce^TM BCA Protein Assay Kit (Thermo Scientific, Waltham, MA, United States). Total protein (30 μg/lane) was separated by SDS-polyacrylamide gel electrophoresis and transferred to nitrocellulose membranes (GE Healthcare Life Sciences, Little Chalfont, United Kingdom). Membranes were blocked with Odyssey blocking reagent (LI-COR Biosciences, Bad Homburg, Germany) for 1 h at room temperature. Ensuing, membranes were incubated with antibodies against CD36 (EPR6573, Abcam, Cambridge, United Kingdom), PPARγ (E-8, Santa Cruz Biotechnology, Heidelberg, Germany), FABP-4 (C-15, Santa Cruz Biotechnology, Heidelberg, Germany) or PPARγ Ser273 (Bioss Antibodies Inc., Woburn, MA, United States) overnight at 4°C. Afterwards, membranes were washed and incubated with fluorescence conjugated secondary antibodies (IRDye, LI-COR Biosciences, Bad Homburg, Germany). Protein antibody complexes were visualized on the Odyssey Infrared Imaging System (LI-COR Biosciences, Bad Homburg, Germany). β-actin (I-19, goat, polyclonal, Santa Cruz Biotechnology, Heidelberg, Germany) was used as loading control. The density of the immune reactive bands was analyzed using the Image Studio 5.2 software (LI-COR Biosciences, Bad Homburg, Germany).
As master regulator of adipocyte differentiation in men and mice, PPARγ plays a crucial role in the cell’s commitment to the adipocyte lineage by controlling important functions such as intracellular biosynthesis, transport and accumulation of lipids. Murine 3T3-L1 fibroblasts are a well characterized in vitro tool to study PPARγ induced adipocyte differentiation. These cells can be differentiated from fibroblasts into adipocytes by an activation cocktail (0.5 mM IBMX, 1 μg/mL insulin, 0.25 μM dexamethasone) together with the potential PPARγ agonist. Upon differentiation, different parameters such as lipid accumulation and PPARγ target gene expression can be assessed to investigate the PPARγ activating potential of the compounds of interest. […] Rosiglitazone (2 μM) was used as positive control. This was followed by insulin (1 μg/mL) treatment for another 48 h. After this, cells were kept in growth medium for a week to complete the differentiation process and allow intracellular lipid accumulation. Subsequently, the cells were stained with Oil Red O solution to investigate the extent of cytoplasmic lipid droplet accumulation as a measure for cell differentiation.
In addition to mRNA expression, the protein expression levels of the two PPARγ target genes FABP-4 and CD36 in differentiated 3T3-L1 cells after 14 days were investigated. For this, total protein lysates were separated by gel electrophoresis followed by Western Blotting (Figure 3E,F and Supplementary Figures S2A,B).

Description for recombinant human sEH: For determination of IC50 values of recombinant human sEH a 96-well fluorescence-based assay system was used as described before ([Blöcher et al., 2016a]). In brief, non-fluorescent PHOME (3 phenylcyano-(6-methoxy-2-naphthalenyl)methyl ester 2-oxiraneacetic acid, Cayman Chemicals, Ann Arbor, MI, United States) was used as substrate, which is hydrolyzed by sEH to the fluorescent 6-methoxynaphthaldehyde ([Rau et al., 2006]). The formation of the fluorescent product was measured (λem = 330 nm, λex = 465 nm) by an Infinite F200 Pro plate reader (Tecan Group Ltd., Männedorf, Switzerland). For that purpose, 2 μg recombinant human sEH in 100 μl bis-Tris buffer (pH 7, 0.1 mg/mL BSA, 0.01% Triton-X 100) was applied per well. This protein solution was then incubated with different concentrations of the test compounds for 30 min at RT. After this, 10 μL of the substrate were added (final concentration 50 μM). The formation of 6-methoxynaphthaldehyde was monitored for 30 min. All concentrations were tested in triplicate wells.
Description for sEH (HEP-G2): Quantification of cellular sEH metabolic activity was performed as described by [Zha et al. (2014)]. For this, HEP-G2 cells were harvested, washed twice with PBS and sonicated in PBS for disruption of cell integrity. Then, 1 μg of total cell homogenate diluted in 100 μl of PBS containing 0.1 mg/ml BSA was incubated with the compounds or vehicle for 15 min at 37°C. After this, 25 ng (±)14(15)-EET-d11 (Cayman Chemical, Ann Arbor, MI, United States) were added per sample and the incubation was continued for additional 10 min at 37°C. A blank was performed using PBS (containing 0,1 mg/mL BSA). The reactions were stopped by adding 100 μL of ice cold methanol. After centrifugation (2000 rpm, 4°C, 5 min), supernatants were analyzed by LC-MS/MS and the amounts of (±)14(15)-EET-d11 and the corresponding (±)14(15)-DHET-d11 were determined.
14(15)-EET-d11 and 14(15)-DHET-d11 content of the extracted samples were analyzed employing liquid chromatography tandem mass spectroscopy (LC-MS/MS). The LC/MS-MS system comprised an API 5500 QTrap (Sciex, Darmstadt, Germany), equipped with a Turbo-V-source operating in negative ESI mode, an Agilent 1200 binary HPLC pump and degasser (Agilent, Waldbronn, Germany) and an HTC Pal autosampler (Chromtech, Idstein, Germany) fitted with a 25 μL LEAP syringe (Axel Semrau GmbH, Sprockhövel, Germany). High purity nitrogen for the mass spectrometer was produced by a NGM 22-LC/MS nitrogen generator (cmc Instruments, Eschborn, Germany). All substances were obtained from Cayman Chemical, Ann Arbor, MI, United States. Stock solutions with 2,500 ng/mL of both analytes were prepared in methanol. Working standards were obtained by further dilution with a concentration range of 0.1–250 ng/mL for 14(15)-EET-d11 and 14(15)-DHET-d11. Sample extraction was performed with liquid–liquid-extraction. Therefore, 150 μL of matrix homogenates were gently mixed with 20 μL of internal standard [14(15)-EET and 14(15)-DHET all with a concentration of 100 ng/ml in methanol], and were extracted twice with 600 μL of ethyl acetate. Samples for standard curve and quality control were prepared similarly, instead of 150 μL of matrix homogenates, 150 μL PBS were added. Further 20 μL methanol, 20 μL working standard and 20 μL internal standard were added. The organic phase was removed at a temperature of 45°C under a gentle stream of nitrogen. The residues were reconstituted with 50 μL of methanol/water/(50:50, v/v), centrifuged for 2 min at 10,000 g and then transferred to glass vials (Macherey-Nagel, Düren, Germany) prior to injection into the LC-MS/MS system. For the chromatographic separation a Gemini NX C18 column and pre-column were used (150 mm × 2 mm i.d., 5 μm particle size and 110 Å pore size from Phenomenex, Aschaffenburg, Germany). A linear gradient was employed at a flow rate of 0.5 mL/min mobile phase with a total run time of 17.5 min. Mobile phase was A water/ammonia (100:0.05, v/v) and B acetonitrile/ammonia (100:0.05, v/v). The gradient started from 85% A to 10% within 12 min. This was held for 1 min at 10% A. Within 0.5 min the mobile phase shifted back to 85% A and was held for 3.5 min to equilibrate the column for the next sample. The injection volume of samples was 20 μL. Quantification was performed with Analyst Software V 1.5.1 (Sciex, Darmstadt, Germany) employing the internal standard method (isotope- dilution mass spectrometry). Ratios of analyte peak area and internal standard area (y-axis) were plotted against concentration (x-axis) and calibration curves were calculated by least square regression with 1/concentration^2 weighting.

In the case of `O=C(Nc1cccc2c(=O)cc(-c3nnn[nH]3)oc12)c1ccc(OCCCCc2ccccc2)cc1` [Pranlukast, pranlukast], the “PPARα EC50” value in experiment [1] is reported as “i.a. @ 10 μM”. In addition, the IC50 is 14.1 µM at sEH (HEP-G2), 0.004 µM in the experiment with CysLT1R and 8.86 ± 0.19 µM at recombinant human sEH. In addition, the “PPARδ EC50” value in experiment [2] is reported as “i.a. @ 10 μM”.
On to `CN(CCOc1ccc(CC2SC(=O)NC2=O)cc1)c1ccccn1` (stereo not drawn) [rosiglitazone], for which the “Lipid accumulation (Oil Red O staining)” value in the experiment on 3T3-L1 cells is reported as “strong accumulation of lipid droplets”. The “TNFα induced phosphorylation of PPARγ2 at serine 273” value in experiment [3] is “inhibited this phosphorylation, although this effect was not significant”. Further, the “PPARγ isoforms γ1 and γ2 protein expression” value in experiment [4] (3T3-L1 differentiated with cocktail plus compound) was “upregulated the protein levels”. For the same molecule, in experiment [4] (after 14 days), the “Protein expression of PPARγ target genes FABP-4 and CD36” value is on record as “upregulated the expression of all target genes investigated with high potency”.

The values above are taken from paper PMC6435570, “Zafirlukast Is a Dual Modulator of Human Soluble Epoxide Hydrolase and Peroxisome Proliferator-Activated Receptor γ” (Frontiers in Pharmacology, 2019).
